± gives the standard deviation of the averaged measurements.
Columns and labels:
[1] = system: HS-Sch-2; test: drug sensitivity score (DSS, CellTiter-Glo viability, 72 h) (DSS (dimensionless)); higher = more sensitive; extreme values may be limits of the assay
Outline: (§1)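 MPNST cell lines and primary human Schwann cells (750–1000 cells per well) went into 384-well plates preprinted with each compound at five concentrations in 10-fold steps. Plates were incubated 72 h at 37 °C, 5% CO2. Viability was read as CellTiter-Glo ATP luminescence, scaled between vehicle and positive-control wells, with duplicates averaged where present. Percent inhibition is at the top concentration; drug sensitivity score and relative IC50 (censored at top concentration) come from four-parameter logistic fits.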

[2] = system: S462; test: as above
Outline: as §1

[3] = system: STS26T; test: as above
Outline: as §1

[4] = system: YST-1; test: as above
Outline: as §1

[5] = system: S1507-2; test: as above
Outline: as §1

[6] = system: ST8814; test: as above
Outline: as §1

[7] = system: HSC1 (primary human Schwann cells); test: as above
Outline: as §1

[8] = system: HSC2 (primary human Schwann cells); test: as above
Outline: as §1

[9] = system: HS-PSS; test: as above
Outline: as §1

[10] = system: HS-Sch-2; test: % inhibition of CellTiter-Glo viability at highest tested concentration (72 h), relative to DMSO and benzethonium chloride controls; higher = more inhibition
Outline: as §1

[11] = system: S462; test: as above
Outline: as §1

[12] = system: STS26T; test: as above
Outline: as §1

[13] = system: YST-1; test: as above
Outline: as §1

[14] = system: S1507-2; test: as above
Outline: as §1

[15] = system: ST8814; test: as above
Outline: as §1

[16] = system: HSC1 (primary human Schwann cells); test: as above
Outline: as §1

[17] = system: HSC2 (primary human Schwann cells); test: as above
Outline: as §1

[18] = system: HS-PSS; test: as above
Outline: as §1

[19] = system: STS26T; test: drug sensitivity score (DSS, CellTox-Green cytotoxicity, 72 h) (DSS (dimensionless)); higher = more cytotoxic; extreme values may be limits of the assay
Outline: (§2)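 MPNST cell lines and primary human Schwann cells were incubated 72 h at 37 °C in 384-well plates holding five 10-fold compound dilutions. CellTox-Green was added before seeding at a final 1:1000 dilution and reported fluorescence from DNA released by disrupted cells. Signals were scaled to vehicle and positive-control wells, and cultures failing plate quality control were dropped. Drug sensitivity score and relative IC50 come from four-parameter logistic fits, with IC50 censored at the top concentration.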

[20] = system: S1507-2; test: as above
Outline: as §2

[21] = system: ST8814; test: as above
Outline: as §2

[22] = system: HSC1 (primary human Schwann cells); test: as above
Outline: as §2

[23] = system: HSC2 (primary human Schwann cells); test: as above
Outline: as §2

[24] = system: HS-PSS; test: as above
Outline: as §2

| SMILES | drug sensitivity score [1] | drug sensitivity score [2] | drug sensitivity score [3] | drug sensitivity score [4] | drug sensitivity score [5] | drug sensitivity score [6] | drug sensitivity score [7] | drug sensitivity score [8] | drug sensitivity score [9] | % inhibition [10] [%] | % inhibition [11] [%] | % inhibition [12] [%] | % inhibition [13] [%] | % inhibition [14] [%] | % inhibition [15] [%] | % inhibition [16] [%] | % inhibition [17] [%] | % inhibition [18] [%] | drug sensitivity score [19] | drug sensitivity score [20] | drug sensitivity score [21] | drug sensitivity score [22] | drug sensitivity score [23] | drug sensitivity score [24] |
| --- | --- | --- | --- | --- | --- | --- | --- | --- | --- | --- | --- | --- | --- | --- | --- | --- | --- | --- | --- | --- | --- | --- | --- | --- |
| COc1cc([C@@H]2c3cc4c(cc3[C@@H](O[C@@H]3O[C@@H]5CO[C@@H](c6cccs6)O[C@H]5[C@H](O)[C@H]3O)[C@H]3COC(=O)[C@H]23)OCO4)cc(OC)c1O [Teniposide] (max concentration tested 10000 nM) | 14 | 23.7 ± 0.38 | 17.5 | 22.9 | 15.6 ± 3.6 | 17.7 | 22.2 | 22.8 | 6.82 | 94.8 | 107.1 ± 0.24 | 93.7 | 88.2 | 92.44 ± 0.6 | 87.2 | 92.8 | 100 | 68.2 | 11 | 8.49 ± 4.7 | 14.7 | 11 | 9.8 | 1.46 |
| O=C1CCC(N2C(=O)c3ccccc3C2=O)C(=O)N1 (configuration not stated) [Thalidomide] (max concentration tested 10000 nM) | 0.45 | 0 | 0 | 0 | 0.783 ± 1.1 | 0.0095 | 0 | 0 | 0 | 12.4 | -8.98 ± 4.2 | 2.86 | 2.49 | 13 ± 12 | 10.4 | 1.74 | 8.31 | 8.04 | 0 | 0 | 0 | 0 | 0 | 0 |
| S=P(N1CC1)(N1CC1)N1CC1 [Thio-TEPA] (max concentration tested 50000 nM) | 0.99 | 0 | 0.888 | 0 | 0 | 0.888 | 0 | 0 | 0 | 9.72 | -14.47 ± 0.14 | -2.04 | 9.03 | -14.5 ± 2.9 | -6.39 | 2.2 | 1.51 | 3.83 | 0 | 0.0053 ± 0.0075 | 0 | 0.888 | 0 | 0 |
| Nc1nc2[nH]cnc2c(=S)[nH]1 [Thioguanine] (max concentration tested 10000 nM) | 8.53 | 7.88 ± 0.29 | 10.6 | 8.84 | 4.38 ± 1.2 | 10.7 | 0.0001 | 0 | 7.46 | 79.2 | 74.5 ± 5.8 | 81 | 88.8 | 60.8 ± 2.1 | 80.4 | 10.4 | -7.39 | 76.4 | 4.01 | 0.992 ± 1.4 | 0.689 | 0 | 0 | 0 |
| Cn1cncc1[C@@](N)(c1ccc(Cl)cc1)c1ccc2c(c1)c(-c1cccc(Cl)c1)cc(=O)n2C [Tipifarnib] (max concentration tested 10000 nM) | 7.08 | 10.58 ± 0.032 | 14 | 13.9 | 14.3 ± 0.82 | 8.98 | 6.55 | 8.8 | 5.39 | 78 | 75.3 ± 2 | 87.3 | 73.1 | 64.095 ± 0.013 | 59.9 | 69.7 | 66.7 | 46.5 | 9.1 | 0 | 0 | 0.209 | 0 | 0 |
| O=C1NC(=O)[C@@H](c2cn3c4c(cccc24)CCC3)[C@@H]1c1c[nH]c2ccccc12 [Tivantinib] (max concentration tested 1000 nM) | 6 | 5.15 ± 0.31 | 6.92 | 6.48 | 5.33 ± 1.5 | 5 | 3.89 | 4.03 | 2.27 | 82.9 | 98.43 ± 0.21 | 98.2 | 78.2 | 80 ± 5.9 | 93 | 62.9 | 60.3 | 36.1 | 7.73 | 4.49 ± 1.2 | 4.59 | 1.43 | 2.53 | 0.01 |
| COc1cc2nccc(Oc3ccc(NC(=O)Nc4cc(C)on4)c(Cl)c3)c2cc1OC [Tivozanib] (max concentration tested 10000 nM) | 2.18 | 6.863 ± 0.013 | 3.66 | 4.22 | 10.5 ± 0.46 | 0 | 5.86 | 6.35 | 2 | 51.3 | 58.9 ± 1.3 | 45.5 | 58.2 | 42.795 ± 0.006 | 36.2 | 67.7 | 73.9 | 46.2 | 1.82 | 0.631 ± 0.89 | 1.94 | 0.17 | 0 | 0 |
| C[C@@H]1CCN(C(=O)CC#N)C[C@@H]1N(C)c1ncnc2[nH]ccc12 [Tofacitinib] (max concentration tested 5000 nM) | 0.89 | 1.27 ± 0.56 | 0.0007 | 0.89 | 0.398 ± 0.56 | 0 | 3.18 | 1.53 | 0 | -3.98 | 17.1 ± 3.5 | 10.4 | -2.9 | 0.251 ± 0.54 | 6.57 | 11.7 | 25.1 | -4.37 | 0 | 0.083 ± 0.12 | 0 | 0 | 0 | 0 |
| CC[C@@]1(O)C(=O)OCc2c1cc1n(c2=O)Cc2cc3c(CN(C)C)c(O)ccc3nc2-1 [Topotecan] (max concentration tested 10000 nM) | 21.7 | 27.08 ± 0.12 | 18.3 | 26.3 | 18.9 ± 2.7 | 27.2 | 19.6 | 22 | 14.6 | 101 | 96 ± 1.4 | 92.2 | 99.7 | 92.99 ± 0.57 | 93.6 | 91.1 | 93.5 | 87.1 | 15.6 | 16.1 ± 2.5 | 32.1 | 27.9 | 18.4 | 11.1 |
| CN(C)CCOc1ccc(/C(=C(/CCCl)c2ccccc2)c2ccccc2)cc1 [Toremifene] (max concentration tested 10000 nM) | 1.63 | 0.537 ± 0.16 | 0.998 | 0.84 | 1.26 ± 0.65 | 1.19 | 1.48 | 3.28 | 2.31 | 37.2 | 22.3 ± 3 | 27.1 | 26.3 | 32.2 ± 11 | 34.5 | 21.8 | 55.6 | 48.1 | 0.141 | 1.36 ± 0.28 | 5.11 | 0 | 0 | 0 |
| CC(C)C[C@@H](C(=O)N[C@H](C(=O)OC1CCCC1)c1ccccc1)[C@H](O)C(=O)NO [Tosedostat] (max concentration tested 10000 nM) | 11 | 8.03 ± 0.91 | 18.2 | 4.41 | 3.83 ± 0.36 | 2.24 | 9.82 | 12.3 | 0.92 | 64.9 | 55 ± 3.6 | 74.9 | 28.4 | 26.2 ± 6.2 | 28 | 50.1 | 54.6 | 25 | 28.6 | 10.4 ± 9.7 | 2.29 | 0 | 0 | 0 |
| CC(=O)Nc1cccc(-n2c(=O)n(C3CC3)c(=O)c3c(Nc4ccc(I)cc4F)n(C)c(=O)c(C)c32)c1 [Trametinib] (max concentration tested 250 nM) | 4.27 | 13.48 ± 0.13 | 7.88 | 0 | 10.4 ± 0.064 | 12.8 | 9.86 | 8.12 | 5.07 | 53.5 | 85.67 ± 0.21 | 48.4 | 4.55 | 76.9 ± 1.3 | 96.7 | 64.5 | 66.4 | 46.4 | 0 | 4.3 ± 0.49 | 6.34 | 0 | 0.138 | 0.89 |
| CC1=C(/C=C/C(C)=C/C=C/C(C)=C/C(=O)O)C(C)(C)CCC1 [Tretinoin] (max concentration tested 10000 nM) | 0 | 0 | 0.0098 | 0 | 2.06 ± 2.6 | 1.48 | 3.65 | 1.99 | 0 | -3.32 | 4.5 ± 5.9 | 12.3 | -8.64 | 22.8 ± 16 | 19.1 | 32.9 | 20.1 | -12.1 | 0 | 0.483 ± 0.68 | 0 | 0 | 0 | 0 |

— the supplement of paper PMC5579334
